Measured values: US5621102A, “Process for preparing enantiomerically pure xanthine derivatives” (Cell Therapeutics, Inc., priority 1995, dated 1997)

How the values were obtained:
[1] = test system: IL-1-α release in LPS activated PEC; assay: IL-1α release from LPS activated PEC, ELISA; type: cell-based; conditions: Mus musculus, at 24 hours after LPS, read-out: maximum inhibition of IL-1α release
Procedure: Cells were isolated and treated with or without 250 μM CT1501R one hour prior to activation with 10 μg/ml LPS. At various times later, supernatants were harvested and assayed for IL-1-α by ELISA (+/-SD)
(§1) Murine peritoneal exudate cell macrophages (PEC) were isolated by perfusion of mouse peritoneum and plated into 96-well trays at 5×10^5 cells per well. Cells were stimulated with 5 μg/ml Salmonella abortus equi-derived endotoxin CLPS; Sigma Chemical Co., L-1887) or 50 ng/ml IL-1α (Genzyme; Cambridge, Mass.) with or without the addition of CT1501R added to the cultures one hour prior to addition of the stimulus. At various times thereafter, supernatants were removed and levels of either TNF-α or IL-1α were assayed using commercial 96-well microtiter immunoassay kits (Genzyme; TNF; Endogen, Boston, Mass.; IL-1α) according to manufacturer's specifications. For the adhesion studies, early passage human umbilical vein endothelial cells (HUVEC) were obtained from commercial suppliers (Clonetics, San Diego, Calif. or Cell Systems, Seattle, Wash.) and cultured in defined, Hepes buffered, serum free medium (Cell Systems, cat 301-180) supplemented with acidic FGF (Cell Systems cat 401-111). […] After addition of […] Hanks Balanced Salt Solution (HBSS), the microtiter plate was then analyzed on a Millipore Cytofiuor fluorescent plate reader (excitation 488 nm; emission 525 nm). […]

[2] = test system: thymocytes; assay: thymocyte costimulator assay (ConA and IL-1α or IL-2); type: cell-based, mice; conditions: drug added two hours prior to activation
Procedure: CT1501R was added to the cells at the doses indicated two hours prior to activation with ConA and IL-1α or IL-2. Background counts were less than 200 cpm.
A thymocyte costimulator assay is conducted to evaluate the inventive compounds to inhibit activation and proliferation of thymocytes caused by stimulation with Con A and interleukin-1 (IL-1), or […]. Thymuses are obtained from mice (e.g., female Balb/C mice) and the thymuses are removed and dissociated into culture media (e.g., RPMI 1640 without serum supplementation). The dissociated thymus tissue and cell suspension is transferred to centrifuge tubes and allowed to settle, washed with HBSS and resuspended in serum-supplemented culture media (e.g., RPMI 1640 with 10% fetal calf serum). Any contaminating red cells are lysed, and viable cells are resuspended and counted. Thymocytes are plated (e.g., 96-well plates at a density of 2×10^5 cells/well) and a stimulating agent, such as Con A, IL-1 (e.g., IL-1α) or IL-2 is added to the well. The cells are incubated for 4 days at 37 ° C. On the fourth day, the ceils are pulsed with tritiated thymidine and cell proliferation determined. Inventive compounds are added at the time of stimulating agent addition.

[3] = test system: IL-1α; assay: mouse plasma IL-1α ELISA after endotoxin; type: in vivo, mice
Procedure: FIG. 7 illustrates data from mouse plasma IL-1α ELISA measurements. Data were compiled from an average of duplicate ELISA measurements from a single experiment with each point representing pooled serum from three mice.
For ELISA measurements of cytokine levels in plasma, blood was collected by retro-orbital or cardiac puncture of anesthetized mice, immediately centrifuged and the EDTA plasma stored at -70° C. Particulate free plasma was thawed on ice and cytokine levels determined utilizing commercial ELISA assays with normal mouse plasma used to generate standard curves. Murine tumor necrosis factor-α and interleukin-1α kits were purchased from Genzyme (Cambridge, Mass.) and Endogen (Boston, Mass.), respectively. Each data point was an average of two ELISA measurements made from EDTA serum pooled from three mice. The data summarized in Table 3 were compiled from two independent experiments; data from Table 4 and 5 were from single experiments of three mice per data point.
In particular, peak levels observed at 6, 12 and 18 hours post endotoxin were decreased 1.2, 4.3 and 3.2-fold, respectively. Finally, IL-6 measurements were made in a similar manner (Table 6, FIG. 8).

[4] = test system: TNF-α release from IL-1α activated PEC; assay: TNF-α release from IL-1α activated PEC, ELISA; type: cell-based; conditions: Mus musculus, 50 ng/ml IL-1α, at the tested time points (24, 48, 72 hrs), read-out: inhibition of induced levels of TNF-α
Procedure: Cells were isolated and treated with or without CT1501R (250 μM) 1 hour prior to IL-1-α activation. The supernatants were collected at 24, 48 or 72 hrs following activation and assayed for TNF-α by ELISA (+/-SD).
as §1

C[C@@H](O)CCCCn1c(=O)c2c(ncn2C)n(C)c1=O [CT1501R, (R)-1-(5-hydroxyhexyl)-3,7-dimethylxanthine]
inhibition at 250 µM [1]: ~50% | inhibition of thymocyte proliferation [2]: inhibited thymocyte proliferation in a dose-response manner | decrease of peak plasma IL-1α vs endotoxin only ([3]; 6 hours post endotoxin): 1.2 fold | decrease of peak plasma IL-1α vs endotoxin only ([3]; 12 hours post endotoxin): 4.3 fold | decrease of peak plasma IL-1α vs endotoxin only ([3]; 18 hours post endotoxin): 3.2 fold | inhibition at 250 µM [4]: 50 to 70%
